Test results reported in US5559232A, “Carboxamides” (Hoffmann-La Roche Inc., priority 1993, dated 1996).

Legend:
[1] = biological target: human thrombin (Homo sapiens, UniProt P00734); test: inhibition of the amidolytic activity of thrombin (chromogenic substrate S-2238); format: biochemical; conditions: for Ki: human thrombin 0.5 nM, substrate S-2238, pH 7.8, room temperature; for q (ratio of the inhibition of trypsin to the inhibition of thrombin): specificity: Ki trypsin / Ki thrombin
Experimental: A differential inhibition of thrombin and other serine proteases by the above compounds is desirable in order to obtain compounds having as high a specificity as possible and at the same time to avoid possible side-effects.
Specific chromogenic peptide substrates can be used to determine the inhibition of the catalytic activity of the above proteases. The inhibition of the amidolytic activity of thrombin and trypsin by the above guanidines was determined as described hereinafter.
The measurements were carried out on microtitre plates at room temperature. For this, in each well of the plate 150 μl of buffer (50 mM Tris, 100 mM NaCl, 0.1% polyethylene glycol; pH 7.8) were mixed with 50 μl of the inhibitor dissolved in DMSO and diluted in the buffer, and 25 μl of human thrombin (0.5 nM final conc.) were added. After incubation for 10 minutes the reaction was started by the addition of chromogenic substrate S-2238 (H-D-Phe-Pip-Arg-paranitroaniline from Kabivitrum; 10 or 50 μm final conc.) and the hydrolysis of the substrate was followed spectrophotometrically on a kinetic microtiter plate reader for 5 minutes. After graphical presentation of the inhibition curves the Ki values were determined according to the method described in Blochem. J. 55, 1955, 170-171.

[2] = biological target: trypsin; test: inhibition of the amidolytic activity of trypsin (chromogenic substrate S-2251); format: biochemical; conditions: substrate S-2251, 200 and 750 μM, otherwise analogous to thrombin

| SMILES | Ki [1] [µM] | q (ratio of the inhibition of trypsin to the inhibition of thrombin) [1] | Ki [2] [µM] |
| --- | --- | --- | --- |
| N=C(N)N1CCOC(CNC(=O)C[C@H](NC(=O)OCc2ccccc2)C(=O)N(CCC(=O)O)C2CC2)C1 (stereo partly drawn) [Example 6c, 3-[[(S)-3-[4-(amino-imino-methyl)-morpholin-2-ylmethylcarbamoyl]-2-benzyloxycarbonylamino-propionyl]-cyclopropyl-amino]propionic acid] | 0.33 | 279 | 92 |
| CCCCS(=O)(=O)N1CCN(CC(=O)O)C(=O)C1CC(=O)NC[C@@H]1CCCN(C(=N)N)C1 (stereo partly drawn) [Example 17, [3-[(S)-1-(amino-imino-methyl)-piperidin-3-ylmethylcarbamoylmethyl]-4-butylsulphonyl-2-oxo-piperazin-1yl]acetic acid] | 1.3 | 74 | 96 |
